Assays:
[1] = system: rat pleurisy model of inflammation; test: carrageenin-induced pleurisy model, exudate volume; format: in vivo; conditions: 10 mg/kg p.o. for two days at -1, 6, 24 and 45 hours relative to carrageenin injection, 48 hours after injection
[2] = system: 5-lipoxygenase; test: ex vivo inhibition of A-23187-stimulated LTB4 formation in whole blood after oral administration; conditions: dose of about 3 mg/kg p.o. to the dog
Method: Furthermore, the inhibition of 5-lipoxygenase is determined after oral or i.v. administration to rats or dogs by measuring ex vivo in whole blood the decrease of A-23187-stimulated LTB4 formation as compared to non-treated control animals.
(§1) Illustrative of the invention, the compound of example 1a, (E)-3-(1-cycloheptyl-1H-pyrrol-3-yl)-N-hydroxy-N-methyl-2-propenamide, inhibits the formation of 5-HETE [(5S)-5-hydroxy-6,8,11,14-eicosatetraenoic acid] and leukotriene B4 (LTB4, 5,12-dihydroxy-6,8,10,14-eicosatetraenoic acid) in A-23187-stimulated guinea pig polymorphonuclear leukocytes, e.g. at an IC50 of about 0.1 micromolar (1×10^-7 M).

[3] = biological target: T1, 5-lipoxygenase (Cavia porcellus, UniProt A0A286X958); test: inhibition of 5-HETE and LTB4 synthesis in A-23187-stimulated guinea pig polymorphonuclear leukocytes; format: cell-based; conditions: also printed as 1×10^-7 M, read-out: IC50, inhibition of the formation of 5-HETE and leukotriene B4 (LTB4)
T1 construct: A-23187-stimulated guinea pig polymorphonuclear leukocytes; endogenous in cells; host or cells: guinea pig polymorphonuclear leukocytes
T1 sequence (A0A286X958 1-674): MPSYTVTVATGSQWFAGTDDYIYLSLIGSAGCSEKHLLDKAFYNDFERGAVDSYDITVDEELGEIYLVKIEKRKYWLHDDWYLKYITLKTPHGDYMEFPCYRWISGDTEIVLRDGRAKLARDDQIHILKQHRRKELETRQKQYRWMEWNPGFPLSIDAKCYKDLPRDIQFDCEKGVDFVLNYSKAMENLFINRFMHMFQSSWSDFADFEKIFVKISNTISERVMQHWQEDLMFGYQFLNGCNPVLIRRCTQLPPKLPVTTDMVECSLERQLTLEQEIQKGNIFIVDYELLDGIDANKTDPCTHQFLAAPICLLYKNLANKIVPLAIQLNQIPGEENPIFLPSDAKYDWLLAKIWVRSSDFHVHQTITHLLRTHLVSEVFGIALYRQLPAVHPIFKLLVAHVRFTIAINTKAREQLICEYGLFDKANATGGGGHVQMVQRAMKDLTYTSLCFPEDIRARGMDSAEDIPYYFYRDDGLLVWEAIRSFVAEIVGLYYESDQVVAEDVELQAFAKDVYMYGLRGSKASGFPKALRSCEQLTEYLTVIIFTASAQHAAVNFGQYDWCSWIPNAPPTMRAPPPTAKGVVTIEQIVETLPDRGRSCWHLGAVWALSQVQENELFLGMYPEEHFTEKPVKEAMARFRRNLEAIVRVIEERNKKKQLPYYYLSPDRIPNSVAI
Method: 5-Lipoxygenase inhibition is determined e.g. by measuring the percent inhibition of the synthesis of 5-HETE [(5S)-5-hydroxy-6,8,11,14-eicosa-tetraenoic acid] and leukotriene B4 (LTB4, 5,12-dihydroxy-6,8,10,14-eicosatetraenoic acid) in A-23187-stimulated guinea pig polymorphonuclear leukocytes, essentially according to radiometric thin-layer chromatographic assays described by Walker and Dawson (J. Pharm. Pharmacol. 31: 778, 1979) and Jakschik and Lee (Nature 287: 51, 1980) used to measure the formation of 5-HETE and LTB4 -like products from ^14 C-arachidonic acid. IC50 values are determined graphically as the concentration of test compound at which the synthesis of 5-HETE and LTB4 -like products is reduced to 50% of their respective control values.
as §1

Question: Which results are given for `CN(O)C(=O)/C=C/c1ccn(C2CCCCCC2)c1` [example 1a, (E)-3-(1-cycloheptyl-1H-pyrrol-3-yl)-N-hydroxy-N-methyl-2-propenamide]?
Answer: inhibition of exudate volume [1]: causes inhibition of exudate volume; inhibition of LTB4 formation as determined ex vivo [2]: 50%; IC50 [3]: ~100 nM
